Experiment [1] deals with T1, caspase-1 (Homo sapiens, UniProt P29466).
T1 sequence (P29466 120-297 limits assumed): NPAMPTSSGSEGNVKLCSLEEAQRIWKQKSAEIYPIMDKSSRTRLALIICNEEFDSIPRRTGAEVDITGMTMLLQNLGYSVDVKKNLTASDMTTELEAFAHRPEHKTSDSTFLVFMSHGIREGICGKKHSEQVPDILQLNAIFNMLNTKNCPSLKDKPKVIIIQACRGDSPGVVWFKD
T1 sequence (P29466 317-404 limits assumed): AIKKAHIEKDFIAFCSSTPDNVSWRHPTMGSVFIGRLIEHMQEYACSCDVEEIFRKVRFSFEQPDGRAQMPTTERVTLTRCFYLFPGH
Nature of the experiment: Caspase-1 enzyme inhibition (Ki, method of Margolin et al.). It is filed as biochemical. To be noted: Suc-YVAD-pNA substrate 80 μM, 37° C., pH 7.5; read-out: Ki C1. The procedure:
(§1) Compounds of this invention may be tested using the methods described below.
(§2) In Vitro Assays Enzyme Inhibition
(§3) Ki values for test compounds with caspase-1 and caspase-8 were obtained by the method of Margolin et al. (J. Biol. Chem., 272 pp. 7223-7228 (1997)). Other caspases may be assayed similarly (see, e.g., WO 99/47545). Assays were performed in 10 mM Tris (Sigma Corp, St Louis Mo.) pH 7.5, 1 mM Dithiothreitol (DTT, Research Organic INC, Cleveland, Ohio) and 0.1% CHAPS (Pierce, Rockford Ill.) at 37° C. For caspase-3, a solution of 8% glycerol was added to the assay buffer to improve enzyme stability. A 65 μL aliquot of the assay buffer and 5 μL aliquot of the appropriate dilutions of inhibitor in DMSO where pipetted into a 96 well plate, treated with 10 μL of caspase, then diluted in assay buffer (0.5-40 nM active protein by active site titration). A control containing DMSO but no compound was included for each determination. The plates were then incubated for 15 minutes at 37° C., before addition of the appropriate substrate (20 μL, final concentration 1-4×KM, final assay volume 100 μL) to initiate the reaction. Reaction rates were measured at 37° C. either by following the time dependant increase in absorbance at 405 nm (for the pNA substrates) or in fluorescence (Ex 390, Em 460) (for the AMC substrates). The rates obtained were plotted against inhibitor concentration and the data fit to the Morrison tight-binding equation for competitive inhibitors (Morrison, J. F., Biochem. Biophys. Acta, 185 pp. 269-286 (1969)). The substrates used for the individual assays were as follows:
Caspase-1 Suc-YVAD-pNA (Bachem, King of Prussia, Pa.) (final concentration in the assay 80 μM);

For experiment [2], the target named is caspase-8 (Homo sapiens, UniProt Q14790). Put plainly: Caspase-8 enzyme inhibition (Ki, method of Margolin et al.). It is filed as biochemical. To be noted: Ac-DEVD-pNA substrate 80 μM, 37° C., pH 7.5; read-out: Ki C8. The procedure:
as §1, §2, §3
Caspase-8 Ac-DEVD-pNA (Bachem, King of Prussia, Pa.) (final concentration in assay 80 μM).

The text below walks through data of US7652153B2, “Caspase inhibitors and uses thereof” (Vertex Pharmaceuticals Incorporated, priority 2004, dated 2010).

In general, Ki refers to the dissociation constant of the complex between target and ligand, obtained from inhibition or displacement.

The structures appear in SMILES notation. A value given as a limit tells only on which side of the number the result lay.

Sequence of caspase-8 (Q14790 217-374 limits assumed, species assumed): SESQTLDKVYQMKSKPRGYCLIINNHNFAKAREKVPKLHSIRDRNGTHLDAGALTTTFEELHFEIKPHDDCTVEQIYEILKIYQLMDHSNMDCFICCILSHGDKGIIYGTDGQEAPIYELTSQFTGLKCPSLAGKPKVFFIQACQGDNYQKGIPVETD
Sequence of caspase-8 (Q14790 385-479 limits assumed, species assumed): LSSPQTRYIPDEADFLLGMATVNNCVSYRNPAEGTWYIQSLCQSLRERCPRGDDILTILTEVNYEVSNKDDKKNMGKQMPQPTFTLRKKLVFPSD

Consider `Cc1ccsc1C(=O)N[C@H](C(=O)N1CCC[C@H]1C(=O)N[C@H](C=O)CC(=O)O)C(C)C` [II-17, (S,S,S)-(3S)-[(1-{3-Methyl-(2S)-[(3-methyl-thiophene-2-carbonyl)-amino]-butyryl}-pyrrolidine-(2S)-carbonyl)-amino]-4-oxo-butyric acid], for which the Ki in experiment [1] and in experiment [2] was under 10 nM in each case.
In the case of `CC(C)[C@H](NC(=O)c1ccccc1OC(F)(F)F)C(=O)N1CCC[C@H]1C(=O)N[C@H](C=O)CC(=O)O` [II-5, (S,S,S)-(3S)-({1-[3-Methyl-(2S)-(2-trifluoromethoxy-benzoylamino)-butyryl]-pyrrolidine-(2S)-carbonyl}-amino)-4-oxo-butyric acid], the Ki in experiment [1] was under 10 nM; in experiment [2], 10 to 20 nM.
In the same order, the values of `CC(C)[C@H](NC(=O)c1cccc(C(F)(F)F)c1Cl)C(=O)N1CCC[C@H]1C(=O)N[C@H](C=O)CC(=O)O` [II-9, (S,S,S)-(3S)-({1-[(2S)-(2-Chloro-3-trifluoromethyl-benzoylamino)-3-methyl-butyryl]-pyrrolidine-(2S)-carbonyl}-amino)-4-oxo-butyric acid] are under 10 nM and 10 to 20 nM.
In the same order, the values of `Cc1c(N)cccc1C(=O)N[C@H](C(=O)N1CCC[C@H]1C(=O)N[C@H](C=O)CC(=O)O)C(C)C` [II-7, (S,S,S)-(3S)-({1-[(2S)-(3-Amino-2-methyl-benzoylamino)-3-methyl-butyryl]-pyrrolidine-(2S)-carbonyl}-amino)-4-oxo-butyric acid] are under 10 nM and 10 to 20 nM.
In the same order, the values of `COc1cccc(C(=O)N[C@@H](CC(F)(F)F)C(=O)N2CCC[C@H]2C(=O)N[C@H](C=O)CC(=O)O)c1C` [II-21, (S,S,S)-4-Oxo-(3S)-({1-[4,4,4-trifluoro-(2S)-(2-methyl-3-methoxy-benzoylamino)-butyryl]-pyrrolidine-(2S)-carbonyl}-amino)-butyric acid] are under 10 nM and 21 to 30 nM.
Turning to `CC(=O)Nc1ccc(C(=O)N[C@H](C(=O)N2CCC[C@H]2C(=O)N[C@H](C=O)CC(=O)O)C(C)C)c(Cl)c1` [II-40, (S,S,S)-(3S)-({1-[(2S)-(2-chloro-4-acetamido-benzoylamino)-3-methyl-butyryl]-pyrrolidine-(2S)-carbonyl}-amino)-4-oxo-butyric acid], the Ki was under 10 nM in experiment [1] and 10 to 20 nM in experiment [2].
In the same order, the values of `CC(C)(C)[C@H](NC(=O)c1ccccc1Cl)C(=O)N1CCC[C@H]1C(=O)N[C@H](C=O)CC(=O)O` [II-28, (S,S,S)-(3S)-({1-[(2S)-(2-Chloro-benzoylamino)-3,3-dimethyl-butyryl]-pyrrolidine-(2S)-carbonyl}-amino)-4-oxo-butyric acid] are under 10 nM and under 10 nM.
Regarding `CC(C)(C)[C@H](NC(=O)c1cccc(OC2CC2)c1Cl)C(=O)N1CCC[C@H]1C(=O)N[C@H](C=O)CC(=O)O` [II-33, (S,S,S)-(3S)-({1-[(2S)-(2-Chloro-3-cyclopropyloxy-benzoylamino)-3,3-dimethyl-butyryl]-pyrrolidine-(2S)-carbonyl}-amino)-4-oxo-butyric acid], the Ki in experiment [1] and in experiment [2] was under 10 nM throughout.
As for `COc1cccc(C(=O)N[C@@H](Cc2cscn2)C(=O)N2CCC[C@H]2C(=O)N[C@H](C=O)CC(=O)O)c1C` [II-23, (S,S,S)-(3S)-({1-[(2S)-(3-Methoxy-2-methyl-benzoylamino)-3-thiazol-4-yl-propionyl]-pyrrolidine-(2S)-carbonyl}-amino)-4-oxo-butyric acid], the results for the Ki in experiment [1] and in experiment [2] were under 10 nM and 21 to 30 nM, respectively.
Turning to `CCC(=O)Nc1ccc(C(=O)N[C@H](C(=O)N2[C@@H]3CC[C@@H](C3)[C@H]2C(=O)N[C@H](C=O)CC(=O)O)C(C)(C)C)cc1Cl` (stereo in doubt) [II-63, (3S)-({2-[(2S)-(3-Chloro-4-propionylamino-benzoylamino)-3,3-dimethyl-butyryl]-2-(1S,4R)-aza-bicyclo[2.2.1]heptane-(3S)-carbonyl}-amino)-4-oxo-butyric acid], the inhibition constant Ki in experiment [1] is under 10 nM; in experiment [2] it was 10 to 20 nM.
In the same order, the values of `Cc1c(Cl)cccc1C(=O)N[C@H](C(=O)N1CCC[C@H]1C(=O)N[C@H](C=O)CC(=O)O)C(C)C` [II-10, (S,S,S)-(3S)-({1-[(2S)-(3-Chloro-2-methyl-benzoylamino)-3-methyl-butyryl]-pyrrolidine-(2S)-carbonyl}-amino)-4-oxo-butyric acid] are under 10 nM and 10 to 20 nM.
In the same order, the values of `COc1cccc(C(=O)N[C@H](C(=O)N2CCC[C@H]2C(=O)N[C@H](C=O)CC(=O)O)C(C)(C)C)c1Cl` [II-30, (S,S,S)-(3S)-({1-[(2S)-(2-Chloro-3-methoxy-benzoylamino)-3,3-dimethyl-butyryl]-pyrrolidine-(2S)-carbonyl}-amino)-4-oxo-butyric acid] are under 10 nM and under 10 nM.
In the same order, the values of `CC(C)[C@H](NC(=O)c1ccc(Cl)cc1Cl)C(=O)N1CCC[C@H]1C(=O)N[C@H](C=O)CC(=O)O` [II-11, (S,S,S)-(3S)-({1-[(2S)-(2,4-Dichloro-benzoylamino)-3-methyl-butyryl]-pyrrolidine-(2S)-carbonyl}-amino)-4-oxo-butyric acid] are under 10 nM and 21 to 30 nM.
Consider `COc1ccc(C)c(C(=O)N[C@H](C(=O)N2CCC[C@H]2C(=O)N[C@H](C=O)CC(=O)O)C(C)C)c1` [II-22, (S,S,S)-(3S)-({1-[(2S)-(5-Methoxy-2-methyl-benzoylamino)-3-methyl-butyryl]-pyrrolidine-(2S)-carbonyl}-amino)-4-oxo-butyric acid], for which the Ki in experiment [1] is under 10 nM; in experiment [2], 21 to 30 nM.
In the same order, the values of `CC(C)(C)[C@H](NC(=O)c1ccccc1Cl)C(=O)N1[C@@H]2CC[C@@H](C2)[C@H]1C(=O)NC(C=O)CC(=O)O` (stereo in doubt) [II-56, (3S)-({2-[(2S)-(2-Chloro-benzoylamino)-3,3-dimethyl-butyryl]-2-(1S,4R)-aza-bicyclo[2.2.1]heptane-(3S)-carbonyl}-amino)-4-oxo-butyric acid] are under 10 nM and under 10 nM.
For the compound `CC(=O)Nc1ccc(C(=O)N[C@H](C(=O)N2CCC[C@H]2C(=O)N[C@H](C=O)CC(=O)O)C(C)(C)C)c(Cl)c1` [II-43, (S,S,S)-(3S)-({1-[(2S)-(2-chloro-4-acetamido-benzoylamino)-3,3-dimethyl-butyryl]-pyrrolidine-(2S)-carbonyl}-amino)-4-oxo-butyric acid], the inhibitory constant (Ki) in experiment [1] and in experiment [2] was under 10 nM in each case.
Take `CC(C)[C@H](NC(=O)c1ccccc1C(F)(F)F)C(=O)N1CCC[C@H]1C(=O)N[C@H](C=O)CC(=O)O` [II-27, (S,S,S)-(3S)-({1-[3-Methyl-(2S)-(2-trifluoromethyl-benzoylamino)-butyryl]-pyrrolidine-(2S)-carbonyl}-amino)-4-oxo-butyric acid]: the Ki in experiment [1] and in experiment [2] was under 10 nM in each case.
`Cc1cccc(C(=O)N[C@H](C(=O)N2CCC[C@H]2C(=O)N[C@H](C=O)CC(=O)O)C(C)(C)C)c1Cl` [II-34, (S,S,S)-(3S)-({1-[(2S)-(2-Chloro-3-methyl-benzoylamino)-3,3-dimethyl-butyryl]-pyrrolidine-(2S)-carbonyl}-amino)-4-oxo-butyric acid]: the Ki in experiment [1] and in experiment [2] was under 10 nM each time.
Turning to `O=C[C@H](CC(=O)O)NC(=O)[C@@H]1CCCN1C(=O)[C@H](CC(F)(F)F)NC(=O)c1ccccc1Cl` [II-24, (S,S,S)-(3S)-({1-[(2S)-(2-Chloro-benzoylamino)-4,4,4-trifluoro-butyryl]-pyrrolidine-(2S)-carbonyl}-amino)-4-oxo-butyric acid], the Ki in experiment [1] is under 10 nM; in experiment [2], 21 to 30 nM.
In the case of `CC(C)(C)[C@H](NC(=O)c1cccc(O)c1Cl)C(=O)N1CCC[C@H]1C(=O)N[C@H](C=O)CC(=O)O` [II-39, (S,S,S)-(3S)-({1-[(2S)-(2-Chloro-3-hydroxy-benzoylamino)-3,3-dimethyl-butyryl]-pyrrolidine-(2S)-carbonyl}-amino)-4-oxo-butyric acid], the Ki in experiment [1] and in experiment [2] was under 10 nM throughout.
